Biological target: T1, Pantetheinase (Homo sapiens, UniProt O95497)
T1 sequence (O95497 whole entry): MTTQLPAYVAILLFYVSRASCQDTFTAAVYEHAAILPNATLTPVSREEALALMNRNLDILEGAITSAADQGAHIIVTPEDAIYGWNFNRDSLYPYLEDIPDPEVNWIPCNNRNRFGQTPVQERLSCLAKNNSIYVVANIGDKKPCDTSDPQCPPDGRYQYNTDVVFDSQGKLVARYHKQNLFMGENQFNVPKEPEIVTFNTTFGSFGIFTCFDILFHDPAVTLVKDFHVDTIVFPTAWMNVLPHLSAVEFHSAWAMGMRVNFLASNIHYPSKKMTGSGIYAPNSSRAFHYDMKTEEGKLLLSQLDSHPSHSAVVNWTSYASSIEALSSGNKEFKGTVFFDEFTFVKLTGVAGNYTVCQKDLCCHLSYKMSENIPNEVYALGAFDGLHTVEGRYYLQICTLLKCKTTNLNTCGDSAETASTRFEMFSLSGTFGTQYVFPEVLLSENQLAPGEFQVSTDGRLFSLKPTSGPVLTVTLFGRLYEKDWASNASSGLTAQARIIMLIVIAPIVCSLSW
Test: VNN1 Inhibitor Binding Assay
Experimental: 5 μL of 3× (45 μM) of Pantothenate-AMC to achieve final concentrations of 15 μM (0.25% DMSO final) were added in a 384 well assay plate followed by the addition of 5 μL of 3× the desired concentration of the tested compounds (Compound 1; Compound 2; and RR6) in 0.75% DMSO to designated wells (0.25% of DMSO final). The range of the compound concentrations tested was 10, 3.33, 1.11, 0.37, 0.12, 0.04, 0.01, 0.0046, 0.001, and 0.0005 μM. 5 μL of 0.75% DMSO were also added to positive and negative control wells.5 μL of 1.4 ng/μL Vanain-1 was added to the assay plate to achieve a final amount of 7 ng/well, and covered with plate sealer. Another 5 μL of assay buffer was added to negative controls and the assay plate was then centrifuged briefly (1000 rpm for 30 s) in a plate centrifuge. The assay plate was incubated in the dark for 20 minutes at room temperature and immediately read on an Envision 2105, PerkinElmer multimode plate reader.The fluorescence read was captured at excitation wavelength of 355 nm and emission wavelength of 460 nm.

IC50: > 10 µM
SMILES: CC(=O)NCCN1Cc2nc(NCc3cncc(C#N)c3)ccc2C1=O [US20250066353, Compound 41]
